These results are taken from publication PMC2974002 (Journal of medicinal chemistry, 2010).

Read-outs that look alike come from different tables or passages of the source.

Series [1] has as its system L1210 cells. The series is described as follows: Cell growth inhibition in a cytotoxic assay with L1210 cells. Type of series: cell-based, murine. The following applies: for decrease in cytotoxic potency relative to 5: ratio to 5.
Series [2] deals with L1210 murine leukemia cells. Type of series: in vivo, DBA/2J mice. The settings on record: i.p. on days 1, 5 and 9; for antitumor activity (in words): compared with free drug 11.
The nature of series [3]: Thiol cleavage of prodrugs with BnSH. Type of series: physicochemical.
Series [4] is described as follows: Stability in pH 7.0 phosphate buffer. The following applies: 72 h. Type of series: physicochemical.
The nature of series [5]: Stability to BnSH without soluble base. The series is classed as physicochemical. The following applies: for stability to treatment with BnSH: BnSH in THF (72 h, 23 °C) or MeOH (72 h, 23 °C).
The conditions of series [6]: clean release of 11; cited from earlier work.
In series [7] the test system is DNA. The following applies: cell free systems; cited from earlier work.

As for `NC(=O)NOc1cc2c(c3ccccc13)C(CCl)CN2C(=O)c1cc2cc(NC(=O)c3cc4ccccc4[nH]3)ccc2[nH]1` (centres unmarked) [compound 3, N-(2-(1-(Chloromethyl)-5-(ureidooxy)-2,3-dihydro-1H-benzo[e]indole-3-carbonyl)-1H-indol-5-yl)-1H-indole-2-carboxamide], the “decrease in cytotoxic potency relative to 5” value in series [1] is given as “ten times”. Further, in series [2], the “antitumor activity (in words)” value is reported as “active, albeit only at higher doses”. In addition, the half-life in series [3] is 35 h. Further, in series [4], the “cleavage in pH 7.0 phosphate buffer” value is on record as “no significant cleavage”. In addition, the “stability to treatment with BnSH” value in series [5] is recorded as “stable”.
Turning to `COC(=O)NOc1cc2c(c3ccccc13)C(CCl)CN2C(=O)c1cc2cc(NC(=O)c3cc4ccccc4[nH]3)ccc2[nH]1` (centres unmarked) [compound 4, Methyl(3-(5-(1H-indole-2-carboxamido)-1H-indole-2-carbonyl)-1-(chloromethyl)-2,3-dihydro-1H-benzo[e]indol-5-yl)oxycarbamate], in series [1], the “decrease in cytotoxic potency relative to 5” value was “five times”. In series [2], the “antitumor activity (in words)” value is on record as “active, albeit only at higher doses”. Further, the half-life in series [3] is 10 h. In addition, in series [4], the “cleavage in pH 7.0 phosphate buffer” value was “no significant cleavage”. Also, the “stability to treatment with BnSH” value in series [5] is recorded as “stable”.
`CC(C)(C)OC(=O)NOc1cc2c(c3ccccc13)C(CCl)CN2C(=O)c1cc2cc(NC(=O)c3cc4ccccc4[nH]3)ccc2[nH]1` (centres unmarked) [compound 5, tert-Butyl(3-(5-(1H-indole-2-carboxamido)-1H-indole-2-carbonyl)-1-(chloromethyl)-2,3-dihydro-1H-benzo[e]indol-5-yl)oxycarbamate]: the “antitumor activity (in words)” value in series [2] was “matched or exceeded the efficacy of the free drug 11 at each dose”. Moreover, the “half-life in human plasma (t1/2)” value in series [6] is 3 to 6 h. In addition, the half-life in series [3] (BnSH (100 equiv) and NaHCO3 (100 equiv) in MeOH) was 6 h. Moreover, in series [4], the “cleavage in pH 7.0 phosphate buffer” value is recorded as “no significant cleavage”. Also, the DNA alkylation result in series [7] is reported as “incapable of alkylating DNA”. For the same molecule, the “stability to treatment with BnSH” value in series [5] is listed as “stable”.
On to `CC(C)(C)C(=O)NOc1cc2c(c3ccccc13)C(CCl)CN2C(=O)c1cc2cc(NC(=O)c3cc4ccccc4[nH]3)ccc2[nH]1` (centres unmarked) [compound 6, N-(2-(1-(Chloromethyl)-5-(pivalamidooxy)-2,3-dihydro-1H-benzo[e]indole-3-carbonyl)-1H-indol-5-yl)-1H-indole-2-carboxamide], for which the half-life in series [3] was under 0.5 h. Besides, in series [4], the “cleavage in pH 7.0 phosphate buffer” value is recorded as “completely cleaved”. Further, the “cleavage by BnSH” value in series [5] (under all conditions examined) is on record as “rapidly cleaved”.
As to `CN(Oc1cc2c(c3ccccc13)C(CCl)CN2C(=O)c1cc2cc(NC(=O)c3cc4ccccc4[nH]3)ccc2[nH]1)C(=O)OC(C)(C)C` (centres unmarked) [compound 8, tert-Butyl(3-(5-(1H-indole-2-carboxamido)-1H-indole-2-carbonyl)-1-(chloromethyl)-2,3-dihydro-1H-benzo[e]indol-5-yl)oxy(methyl)carbamate], the “decrease in cytotoxic potency relative to 5” value in series [1] is “nine-fold”. The half-life in series [3] is 48 h. Also, the “cleavage in pH 7.0 phosphate buffer” value in series [4] is listed as “no significant cleavage”. Further, in series [5], the “stability to treatment with BnSH” value was “stable”.
“seco-CBI-indole2 [compound 11, reference compound]”: in series [1], the IC50 turned out to be 0.03 nM and the “potency of natural (1S)-enantiomer relative to unnatural (1R)-enantiomer” value is given as “ca. 30 fold”. Moreover, the “dose of maximal effect” value in series [2] (dose range 10–100 μg/kg) turned out to be 0.06 mg/kg.

A word on the half-life: it is how long it takes for the measured level to halve. Usually IC50 stands for the concentration that gives 50% inhibition.
